Experimental data taken from ChEMBL document CHEMBL1201862, “PubChem BioAssay data set” (2004).
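Cultured in 96-well plates, cells were exposed to test compound for 48 hours across five concentrations. At the GI50, growth is halved.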 Calls of active or inactive are those of the source. No stated cut-off is given here; in the data, active = GI50 up to about 1.1 µM and inactive = higher. Bridge positions count the residues as written; N and C are the ends. Square brackets hold non-standard residues; d marks the D form. Peptide text beside a SMILES is read from it. * marks the point of attachment. Cya = N[CH](CS(=O)(=O)O)C(=O)O; X49 = CC(C)CCCCCCCC(O)CC(=O)*; GABA = NCCCC(=O)O

What was measured:
Assay in all cases: NCI anticancer screen, dose series, 48 h
IGROV-1 = system: IGROV-1
HT-29 = system: HT-29
CCRF-CEM = system: CCRF-CEM
RPMI-8226 = system: RPMI-8226
MDA-MB-435 = system: MDA-MB-435
NCI/ADR-RES = system: NCI/ADR-RES
MCF7 = system: MCF7
SF-295 = system: SF-295
LOX IMVI = system: LOX IMVI
SK-OV-3 = system: SK-OV-3
PC-3 = system: PC-3
SK-MEL-5 = system: SK-MEL-5
NCI-H226 = system: NCI-H226
OVCAR-8 = system: OVCAR-8
786-0 = system: 786-0
K562 = system: K562
HL-60 = system: HL-60
A549 = system: A549
HCT-116 = system: HCT-116
RXF 393 = system: RXF 393

Structure (SMILES) | GI50 (IGROV-1) | GI50 (HT-29) | GI50 (CCRF-CEM) | GI50 (RPMI-8226) | GI50 (MDA-MB-435) | GI50 (NCI/ADR-RES) | GI50 (MCF7) | GI50 (SF-295) | GI50 (LOX IMVI) | GI50 (SK-OV-3) | GI50 (PC-3) | GI50 (SK-MEL-5) | GI50 (NCI-H226) | GI50 (OVCAR-8) | GI50 (786-0) | GI50 (K562) | GI50 (HL-60) | GI50 (A549) | GI50 (HCT-116) | GI50 (RXF 393)
CC12CCC(C/C1=N\NC(N)=O)C2(C)C (centres undefined) | > 100 µM (inactive) | > 100 µM (inactive) | > 100 µM (inactive) | > 100 µM (inactive) | > 100 µM (inactive) | > 100 µM (inactive) | > 100 µM (inactive) | > 100 µM (inactive) | > 100 µM (inactive) | > 100 µM (inactive) | > 100 µM (inactive) | > 100 µM (inactive) | > 100 µM (inactive) | > 100 µM (inactive) | > 100 µM (inactive) | > 100 µM (inactive) | > 100 µM (inactive) | > 100 µM (inactive) | > 100 µM (inactive) | 
CCCCNC(=S)N/C=C1\C(=O)Oc2ccccc2C1=O | 35.4 µM (inactive) | > 100 µM (inactive) |  |  | 61 µM (inactive) | > 100 µM (inactive) | > 100 µM (inactive) | > 100 µM (inactive) | > 100 µM (inactive) | > 100 µM (inactive) | 92.5 µM (inactive) | > 100 µM (inactive) | > 100 µM (inactive) | 42.4 µM (inactive) | > 100 µM (inactive) |  | 10 µM (inactive) | > 100 µM (inactive) | 73.5 µM (inactive) | 
CN1C(=O)c2c(c3c4ccccc4n(C)c3c3c2c2ccccc2n3C)C1=O | > 100 µM (inactive) | > 100 µM (inactive) | > 100 µM (inactive) | > 100 µM (inactive) | > 100 µM (inactive) | > 100 µM (inactive) | > 100 µM (inactive) | > 100 µM (inactive) | > 100 µM (inactive) | > 100 µM (inactive) | > 100 µM (inactive) | > 100 µM (inactive) | > 100 µM (inactive) | > 100 µM (inactive) | > 100 µM (inactive) | > 100 µM (inactive) |  | > 100 µM (inactive) | > 100 µM (inactive) | 
CN(C)C1(c2cc3ccccc3s2)CCCCC1 | 36.1 µM (inactive) | 33 µM (inactive) | < 0.01 µM (active) |  | 35.7 µM (inactive) | 44.1 µM (inactive) | 48.6 µM (inactive) | 26.6 µM (inactive) | 22.5 µM (inactive) | 39.5 µM (inactive) | 28.8 µM (inactive) | 17.4 µM (inactive) | 44.9 µM (inactive) | 51.3 µM (inactive) | 22.2 µM (inactive) | 18 µM (inactive) | < 0.01 µM (active) | 51.2 µM (inactive) | 33.9 µM (inactive) | 25.5 µM (inactive)
CC(C)CCCCCCCC(O)CC(=O)NC(CS(=O)(=O)O)C(=O)NC(CC(C)C)C(=O)NCCCC(=O)NC(Cc1c[nH]cn1)C(=O)NC(C)C(=O)NC1C(=O)NC(C(C)O)C(=O)NC(Cc2c[nH]cn2)C(=O)NC(C)C(=O)NC(C(C)O)C(=O)OC1C (centres undefined) (X49-[Cya]L[GABA]HATTHAT; ester 6-C; configuration not given here) | > 25 µM (inactive) | > 25 µM (inactive) | > 25 µM (inactive) | > 25 µM (inactive) | > 25 µM (inactive) | > 25 µM (inactive) | > 25 µM (inactive) | > 25 µM (inactive) | > 25 µM (inactive) | > 25 µM (inactive) | > 25 µM (inactive) | > 25 µM (inactive) | > 25 µM (inactive) | > 25 µM (inactive) | > 25 µM (inactive) | > 25 µM (inactive) | > 25 µM (inactive) | > 25 µM (inactive) | > 25 µM (inactive) | 
COc1ccc(N2CCN(c3ccc4c(c3)NCC(=O)N4)CC2)cc1 | 45.8 µM (inactive) | > 100 µM (inactive) | 29.7 µM (inactive) | 21.4 µM (inactive) | > 100 µM (inactive) | 21.9 µM (inactive) | > 100 µM (inactive) | 69.2 µM (inactive) | 41.4 µM (inactive) | 91.6 µM (inactive) | 36.2 µM (inactive) | 42.8 µM (inactive) | > 100 µM (inactive) | 26.7 µM (inactive) | 32.2 µM (inactive) | 28.8 µM (inactive) | 17.1 µM (inactive) | 66.2 µM (inactive) | 42.5 µM (inactive) | 
ClCc1c(-c2ccccc2)nn(-c2ccccc2)c1CCl | 6.79 µM (inactive) | 9.75 µM (inactive) |  | 2.26 µM (inactive) | 1.78 µM (inactive) | 29.4 µM (inactive) | 8.2 µM (inactive) | 17.2 µM (inactive) |  |  | 9.71 µM (inactive) | 12.4 µM (inactive) | 26.5 µM (inactive) | 14.2 µM (inactive) | 9.59 µM (inactive) |  | 3.14 µM (inactive) | 16.5 µM (inactive) | 8.09 µM (inactive) | 12.4 µM (inactive)
O=C1Oc2ccccc2C(=O)/C1=C/NC(=S)NCc1ccccc1 | 38.8 µM (inactive) | > 100 µM (inactive) |  |  | 54.3 µM (inactive) | 66.1 µM (inactive) | > 100 µM (inactive) | 55.6 µM (inactive) | 69.3 µM (inactive) | > 100 µM (inactive) | 54.3 µM (inactive) | 69.5 µM (inactive) | > 100 µM (inactive) | 41.1 µM (inactive) | 64.1 µM (inactive) |  | 42.7 µM (inactive) | 65.2 µM (inactive) | 53.8 µM (inactive) | 
COC(=O)C(Cc1c[nH]c2ccccc12)NP(=O)(O)OCC1OC(n2cc(I)c(=O)[nH]c2=O)CC1O (centres undefined) | > 100 µM (inactive) | > 100 µM (inactive) | > 100 µM (inactive) | > 100 µM (inactive) | > 100 µM (inactive) | > 100 µM (inactive) | > 100 µM (inactive) | > 100 µM (inactive) | > 100 µM (inactive) | > 100 µM (inactive) | > 100 µM (inactive) | > 100 µM (inactive) | > 100 µM (inactive) | > 100 µM (inactive) | > 100 µM (inactive) | > 100 µM (inactive) | > 100 µM (inactive) | > 100 µM (inactive) | > 100 µM (inactive) | 
N/C(=N\O)N/N=C/c1cc(I)cc(I)c1O | 30.8 µM (inactive) | 46.7 µM (inactive) | 7.89 µM (inactive) |  | 69.5 µM (inactive) | 2.8 µM (inactive) | 10 µM (inactive) | 50.4 µM (inactive) | 25.4 µM (inactive) | 75.5 µM (inactive) | 37.2 µM (inactive) | 30.6 µM (inactive) | 0.627 µM (active) | 27.9 µM (inactive) | 22.2 µM (inactive) | 43.2 µM (inactive) | 13.2 µM (inactive) | 49.3 µM (inactive) | 23.7 µM (inactive) | 24.5 µM (inactive)
Cc1nc(C)c(Cc2ccccc2)o1 | > 100 µM (inactive) | > 100 µM (inactive) | > 100 µM (inactive) |  | > 100 µM (inactive) | > 100 µM (inactive) | > 100 µM (inactive) | > 100 µM (inactive) | > 100 µM (inactive) | > 100 µM (inactive) | > 100 µM (inactive) | > 100 µM (inactive) | > 100 µM (inactive) | > 100 µM (inactive) | > 100 µM (inactive) | > 100 µM (inactive) | > 100 µM (inactive) | > 100 µM (inactive) | > 100 µM (inactive) | > 100 µM (inactive)
Cc1nc(O)nc(N(CCO)/N=C/c2ccc(Cl)cc2)c1C(=O)Nc1ccc(Cl)cc1 | > 100 µM (inactive) | > 100 µM (inactive) | > 100 µM (inactive) |  | > 100 µM (inactive) | > 100 µM (inactive) | > 100 µM (inactive) | > 100 µM (inactive) | > 100 µM (inactive) | 58.2 µM (inactive) | > 100 µM (inactive) | > 100 µM (inactive) | 72.6 µM (inactive) | 99.5 µM (inactive) | > 100 µM (inactive) | > 100 µM (inactive) | > 100 µM (inactive) | > 100 µM (inactive) | 57.8 µM (inactive) | 24.7 µM (inactive)
Oc1cc2c(cc1C(c1ccc3c(c1)OCO3)N1CCN(C(c3ccc4c(c3)OCO4)c3cc4c(cc3O)OCO4)CC1)OCO2 (centres undefined) | 16.9 µM (inactive) | 5.26 µM (inactive) |  |  | 17.7 µM (inactive) | 19.2 µM (inactive) | 27.2 µM (inactive) | 16.7 µM (inactive) | 3.24 µM (inactive) | 27 µM (inactive) | 28.9 µM (inactive) | 18.6 µM (inactive) | 16.1 µM (inactive) | 14 µM (inactive) | 13.1 µM (inactive) | 21.4 µM (inactive) | 32.5 µM (inactive) | 34 µM (inactive) | 15.7 µM (inactive) | 26.2 µM (inactive)
CC(C)C1CCC(=O)CC1CCCCC1CC(=O)CC1O[Si](C)(C)C(C)(C)C (centres undefined) | 2.84 µM (inactive) | 3 µM (inactive) | 0.955 µM (active) | 1.95 µM (inactive) | 2.95 µM (inactive) | 4.25 µM (inactive) | 4.12 µM (inactive) | 9.62 µM (inactive) | 2.84 µM (inactive) | 11.9 µM (inactive) | 7.53 µM (inactive) | 3.05 µM (inactive) | 3.9 µM (inactive) | 3.83 µM (inactive) | 3.89 µM (inactive) | 2.76 µM (inactive) |  | 6.03 µM (inactive) | 3.18 µM (inactive) | 4.67 µM (inactive)
Nc1nc(Cl)cc(Nc2cc(Cl)cc(Cl)c2)n1 | 18.7 µM (inactive) | 17 µM (inactive) | 28.5 µM (inactive) | 33 µM (inactive) | 20.1 µM (inactive) | 21 µM (inactive) | 18.1 µM (inactive) | 21.1 µM (inactive) | 18.1 µM (inactive) | 19.5 µM (inactive) | 19.7 µM (inactive) | 19.8 µM (inactive) | 18.7 µM (inactive) | 14.2 µM (inactive) | 17.4 µM (inactive) | 30.8 µM (inactive) |  | 24.8 µM (inactive) | 17.5 µM (inactive) | 21.1 µM (inactive)
